Laboratory results: patent US4277465A, “Adjuvant for promoting absorption of therapeutically active substances through the digestive tract” (Kyoto Yakuhin Kogyo Kabushiki Kaisha, priority 1978, dated 1981)

Assays:
Format in all cases: in vivo
[1] = Rectal insulin suppositories (Recipes 21-34), glucose response; settings: rectal suppository 6 I.U. insulin
Description: |Enamine derivative (I) | As indicated in | Table 12 […] The above components were used to prepare rectal suppositories in accordance with established pharmaceutical practice. The suppositories were administered to rabbits and dogs by rectal route. […] The test was conducted by the glucose oxidase method.

[2] = Rectal insulin suppositories (Recipes 35-41), glucose response; settings: rabbit 2.5-3kg; rectal suppository 6 I.U. insulin; enamine derivative 0.025g (5%)
Source text: These suppositories were rectally administered to rabbits (R, 2.5-3kg) and dogs (D, 12-13kg).

[3] = Rectal suppositories of CET-Na with enamine derivative, concentration in blood; settings: dog
Description: These suppositories were rectally administered to dogs and the absorbabilities of the active components were investigated by measuring the blood concentrations.
The blood concentrations were measured in conformity with the biological assay method in the Antibiotic Standard of Japan. The cup method was employed with Sarcina lutea for penicillins and Bacillus subtilis for cephalosporins.

[4] = Rectal suppositories of AB-PC-Na with enamine derivative, concentration in blood; settings: AB-PC-Na 75mg, dog
Description: These suppositories were rectally administered to dogs and the absorbabilities of the active components were investigated by measuring the blood concentrations. The blood concentrations were measured in conformity with the biological assay method in the Antibiotic Standard of Japan. The cup method was employed with Sarcina lutea for penicillins and Bacillus subtilis for cephalosporins.

[5] = CET-Na 500mg, enamine derivative 150mg (10%), base Witepsol H-15 850mg
[6] = CET-Na 75mg, enamine derivative 60mg (5%), base Witepsol H-15 1065mg
[7] = enamine derivative 60mg (5%), base Witepsol H-15 1065mg
[8] = enamine derivative 120mg (10%), base SB-W 1005mg
[9] = enamine derivative 120mg (10%), base Witepsol H-15 1005mg

For `CCOC(=O)C=C(C)NC(C)C(=O)[O-].[Na+]` (racemic) [Compound 18, N-(1-Methyl-2-ethoxycarbonylvinyl)-DL-alanine sodium salt], the “Time course: Lowest level” value ([1]; rabbit, enamine derivative 1%) was 45 to 60 min, the “Time course: Onset” value ([1]; rabbit, enamine derivative 1%) was 30 min and the “Time course: Return to pre-medication level” value (shortened to “Time course: Return”) ([1]; rabbit, enamine derivative 1%) was 180 min.

With `CCOC(=O)C=C(C)NC(C(=O)[O-])c1ccccc1.[Na+]` (racemic) [Compound 24, N-(1-Methyl-2-ethoxycarbonylvinyl)-DL-phenylglycine sodium salt] the “Time course: Lowest level” value ([1]; rabbit, enamine derivative 1%) was 30 to 60 min, the “Time course: Onset” value ([1]; rabbit, enamine derivative 1%) was 15 min and the “Time course: Return” value ([1]; rabbit, enamine derivative 1%) was 180 min.

For `CCOC(=O)C(C)OC(=O)C=C(C)NC(C)C(=O)[O-].[Na+]` (racemic) [Compound 33, N-[1-Methyl-2-(1-ethoxycarbonyl-ethoxycarbonyl)vinyl]-DL-alanine sodium salt], the “Blood glucose response (6 I.U.)” value [2] was 45-55%, the “Time course: Lowest level” value [2] was 45 to 60 min and the “Time course: Onset” value [2] was 15 min. For the same compound, the “Time course: Return” value [2] was 150 min.

With `CCOC(=O)C=C(C)N[C@@H](C)C(=O)[O-].[Na+]` [Compound 19, N-(1-Methyl-2-ethoxycarbonylvinyl)-L-alanine sodium salt] the “Time course: Lowest level” value ([1]; rabbit, enamine derivative 1%) was 45 to 60 min, the “Time course: Onset” value ([1]; rabbit, enamine derivative 1%) was 30 min and the “Time course: Return” value ([1]; rabbit, enamine derivative 1%) was 180 min.

With `CCOC(=O)C=C(C)N[C@H](C(=O)[O-])[C@@H](C)CC.[Na+]` [Compound 20, N-(1-Methyl-2-ethoxycarbonylvinyl)-L-isoleucine sodium salt] the “Blood glucose response (6 I.U.)” value ([1]; dog, enamine derivative 2%) was 25-35%, the “Time course: Lowest level” value ([1]; dog, enamine derivative 2%) was 120 min and the “Time course: Onset” value ([1]; dog, enamine derivative 2%) was 60 to 90 min. For the same compound, the “Time course: Return” value ([1]; dog, enamine derivative 2%) was 180 to 240 min, the “Concentration in blood, 15 min.” value [3, 5] was 9.00 µg/mL and the “Concentration in blood, 30 min.” value [3, 5] was 6.23 µg/mL. For the same compound, the “Concentration in blood, 60 min.” value [3, 5] was 2.91 µg/mL and the “Concentration in blood, 120 min.” value [3, 5] was 1.00 µg/mL.

For `CCOC(=O)C=C(C)N[C@@H](CC(C)C)C(=O)[O-].[Na+]` [Compound 21, N-(1-Methyl-2-ethoxycarbonylvinyl)-L-leucine sodium salt], the “Blood glucose response (6 I.U.)” value ([1]; dog, enamine derivative 1%) was 35-45%, the “Time course: Lowest level” value ([1]; dog, enamine derivative 1%) was 60 to 90 min and the “Time course: Onset” value ([1]; dog, enamine derivative 1%) was 30 min. For the same compound, the “Time course: Return” value ([1]; dog, enamine derivative 1%) was 180 min.

With `CCOC(=O)C=C(C)N[C@H](C(=O)[O-])[C@@H](C)O.[Na+]` [Compound 22, N-(1-Methyl-2-ethoxycarbonylvinyl)-L-threonine sodium salt] the “Time course: Lowest level” value ([1]; rabbit, enamine derivative 5%) was 45 to 75 min, the “Time course: Onset” value ([1]; rabbit, enamine derivative 5%) was 30 min and the “Time course: Return” value ([1]; rabbit, enamine derivative 5%) was 180 min. The “Concentration in blood, 15 min.” value [3, 6] was 0.75 µg/mL, the “Concentration in blood, 30 min.” value [3, 6] was 0.57 µg/mL and the “Concentration in blood, 60 min.” value [3, 6] was 0.31 µg/mL.

With `CCOC(=O)C=C(C)N[C@@H](CCSC)C(=O)[O-].[Na+]` [Compound 23, N-(1-Methyl-2-ethoxycarbonylvinyl)-L-methionine sodium salt] the “Time course: Lowest level” value ([1]; rabbit, enamine derivative 10%) was 60 to 90 min, the “Time course: Onset” value ([1]; rabbit, enamine derivative 10%) was 30 min and the “Time course: Return” value ([1]; rabbit, enamine derivative 10%) was 180 min. The “Concentration in blood, 15 min.” value [4, 7] was 0.52 µg/mL, the “Concentration in blood, 30 min.” value [4, 7] was 0.34 µg/mL and the “Concentration in blood, 60 min.” value [4, 7] was 0.18 µg/mL. The “Concentration in blood, 120 min.” value [4, 7] was 0.08 µg/mL.

In the case of `CCOC(=O)C=C(C)N[C@@H](Cc1ccccc1)C(=O)[O-].[Na+]` [Compound 25, N-(1-Methyl-2-ethoxycarbonylvinyl)-L-phenylalanine sodium salt], the “Time course: Lowest level” value ([1]; rabbit, enamine derivative 1%) is reported as 45 to 90 min, the “Time course: Onset” value ([1]; rabbit, enamine derivative 1%) is reported as 30 min and the “Time course: Return” value ([1]; rabbit, enamine derivative 1%) is reported as 180 min.

In the case of `CCOC(=O)C=C(C)N[C@H](C(=O)[O-])C(C)C.[Na+]` [Compound 26, N-(1-Methyl-2-ethoxycarbonylvinyl)-L-valine sodium salt], the “Time course: Lowest level” value ([1]; rabbit, enamine derivative 10%) is reported as 60 to 90 min, the “Time course: Onset” value ([1]; rabbit, enamine derivative 10%) is reported as 30 min and the “Time course: Return” value ([1]; rabbit, enamine derivative 10%) is reported as 180 min.

In the case of `CCOC(=O)C=C(C)N[C@@H](Cc1c[nH]c2ccccc12)C(=O)[O-].[Na+]` [Compound 27, α-N-(1-Methyl-2-ethoxycarbonylvinyl)-L-tryptophan sodium salt], the “Blood glucose response (6 I.U.)” value ([1]; rabbit, enamine derivative 10%) is reported as 30%, the “Time course: Lowest level” value ([1]; rabbit, enamine derivative 10%) is reported as 60 to 90 min and the “Time course: Onset” value ([1]; rabbit, enamine derivative 10%) is reported as 30 min. The “Time course: Return” value ([1]; rabbit, enamine derivative 10%) was 180 min, the “Concentration in blood, 15 min.” value [4, 8] was 1.6 µg/mL and the “Concentration in blood, 30 min.” value [4, 8] was 1.5 µg/mL. The “Concentration in blood, 60 min.” value [4, 8] was 0.74 µg/mL and the “Concentration in blood, 120 min.” value [4, 8] was 0.40 µg/mL.

In the case of `CCOC(=O)C=C(C)N[C@@H](Cc1c[nH]cn1)C(=O)[O-].[Na+]` [Compound 28, α-N-(1-Methyl-2-ethoxycarbonylvinyl)-L-histidine sodium salt], the “Blood glucose response (6 I.U.)” value ([1]; rabbit, enamine derivative 10%) is reported as 30%, the “Time course: Lowest level” value ([1]; rabbit, enamine derivative 10%) is reported as 60 to 90 min and the “Time course: Onset” value ([1]; rabbit, enamine derivative 10%) is reported as 30 min. The “Time course: Return” value ([1]; rabbit, enamine derivative 10%) was 180 min.

In the case of `CCOC(=O)C=C(C)N[C@@H](CCCNC(=N)N)C(=O)O` [Compound 29, α-N-(1-Methyl-2-ethoxycarbonylvinyl)-L-arginine], the “Blood glucose response (6 I.U.)” value ([1]; rabbit, enamine derivative 5%) is reported as 40-50%, the “Time course: Lowest level” value ([1]; rabbit, enamine derivative 5%) is reported as 60 to 90 min and the “Time course: Onset” value ([1]; rabbit, enamine derivative 5%) is reported as 15 min. For the same compound, the “Time course: Return” value ([1]; rabbit, enamine derivative 5%) was 210 min, the “Concentration in blood, 15 min.” value [4, 8] was 0.50 µg/mL and the “Concentration in blood, 30 min.” value [4, 8] was 0.53 µg/mL. For the same compound, the “Concentration in blood, 60 min.” value [4, 8] was 0.61 µg/mL and the “Concentration in blood, 120 min.” value [4, 8] was 0.41 µg/mL.

In the case of `CCOC(=O)C=C(C)NCCCCCCCCCCC(=O)[O-].[Na+]` [Compound 30, N-(1-Methyl-2-ethoxycarbonylvinyl)-11-aminoundecanoic acid sodium salt], the “Time course: Lowest level” value ([1]; rabbit, enamine derivative 10%) is reported as 60 to 90 min, the “Time course: Onset” value ([1]; rabbit, enamine derivative 10%) is reported as 30 min and the “Time course: Return” value ([1]; rabbit, enamine derivative 10%) is reported as 180 min.

With `CCOC(=O)C=C(C)N[C@@H](CO)C(=O)[O-].[Na+]` [Compound 31, N-(1-Methyl-2-ethoxycarbonylvinyl)-L-serine sodium salt] the “Time course: Lowest level” value ([1]; rabbit, enamine derivative 10%) was 60 to 90 min, the “Time course: Onset” value ([1]; rabbit, enamine derivative 10%) was 30 min and the “Time course: Return” value ([1]; rabbit, enamine derivative 10%) was 180 min. The “Concentration in blood, 15 min.” value [4, 7] was 0.70 µg/mL, the “Concentration in blood, 30 min.” value [4, 7] was 0.38 µg/mL and the “Concentration in blood, 60 min.” value [4, 7] was 0.24 µg/mL. For the same compound, the “Concentration in blood, 120 min.” value [4, 7] was 0.09 µg/mL.

With `CC(=CC(=O)OC(C)C(=O)O)N[C@@H](CCCNC(=N)N)C(=O)O` (stereo partly drawn) [Compound 35, α-N-(1-Methyl-2-(1-carboxy-ethoxycarbonyl)vinyl]-L-arginine] the “Blood glucose response (6 I.U.)” value [2] was 20-30%, the “Time course: Lowest level” value [2] was 30 to 60 min and the “Time course: Onset” value [2] was 15 min. The “Time course: Return” value [2] was 120 min.

For `CC(=CC(=O)NCCO)N[C@@H](Cc1ccccc1)C(=O)[O-].[Na+]` [Compound 36, N-[1-Methyl-2-(2-hydroxyethylcarbamoyl)vinyl]-L-phenylalanine sodium salt], the “Blood glucose response (6 I.U.)” value [2] was 20-30%, the “Time course: Lowest level” value [2] was 30 to 60 min and the “Time course: Onset” value [2] was 15 min. The “Time course: Return” value [2] was 120 min, the “Concentration in blood, 15 min.” value [4, 9] was 1.45 µg/mL and the “Concentration in blood, 30 min.” value [4, 9] was 1.53 µg/mL. For the same compound, the “Concentration in blood, 60 min.” value [4, 9] was 0.80 µg/mL and the “Concentration in blood, 120 min.” value [4, 9] was 0.40 µg/mL.

For `CC(=CC(=O)OCC(O)CO)NCC(=O)[O-].[Na+]` (stereo not drawn) [Compound 38, N-[1-Methyl-2-(2,3-dihydroxypropoxycarbonyl)vinyl]glycine sodium salt], the “Blood glucose response (6 I.U.)” value [2] was 45-55%, the “Time course: Lowest level” value [2] was 45 to 60 min and the “Time course: Onset” value [2] was 15 min. The “Time course: Return” value [2] was 150 min.
